According to patent US10695346B2, “4,6-pyrimidinylene derivatives and uses thereof” (Dana-Farber Cancer Institute, Inc., priority 2015, dated 2020):
pIC50: −log10 of the molar value.

What was measured:
[1] = test system: TP53 wild type MCF7 cells; assay: Cell proliferation assay (Cell TITER-GLO); conditions: even at 5 μM; FIG. 3D
Protocol: To determine cell proliferation, cells were plated at 2×10^3 cells per well of 96-well plate. Cells were incubated and assayed at indicated times using Cell TITER-GLO Luminescent Cell Viability assay (Promega). Cells were allowed to equilibrate to room temperature for 15 minutes, then an equal volume of the Cell TITER-GLO reagent was added to wells and incubated for 15 minutes on an orbital shaker. Luminescence was recorded according to the manufacturer's protocol.

[2] = biological target: T1, PIP4K2A (Homo sapiens, UniProt P48426); assay: ADP-GLO assay on PIP4K2A; type: biochemical; conditions: 0.01 mM ATP, 0.05 mM diC8 PI(5)P
T1 sequence (P48426 1-406): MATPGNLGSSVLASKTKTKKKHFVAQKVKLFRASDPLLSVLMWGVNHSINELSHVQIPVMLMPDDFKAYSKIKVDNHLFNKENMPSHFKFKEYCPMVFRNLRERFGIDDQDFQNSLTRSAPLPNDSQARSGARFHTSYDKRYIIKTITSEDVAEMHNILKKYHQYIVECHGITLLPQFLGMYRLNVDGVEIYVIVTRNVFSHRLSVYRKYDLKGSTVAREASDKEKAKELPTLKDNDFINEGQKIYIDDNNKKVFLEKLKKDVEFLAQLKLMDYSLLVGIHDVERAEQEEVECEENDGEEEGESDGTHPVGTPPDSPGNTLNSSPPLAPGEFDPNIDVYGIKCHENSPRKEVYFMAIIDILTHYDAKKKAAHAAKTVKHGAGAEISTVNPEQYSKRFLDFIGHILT
Protocol: After a further incubation of 40 minutes, 40 μl of Kinase Detection Buffer was added. After a further incubation of 40 min, the […] was read on […] ENVISION for 1 sec/well.

pIC50 [2]	SMILES	inhibition of TP53 wild type MCF7 cells [1]
	CN(C)C/C=C/C(=O)Nc1ccc(C(=O)Nc2cccc(Nc3cc(-c4cnc5[nH]ccc5c4)ncn3)c2)cc1 [Compound 8, (E)-N-(3-((6-(1H-pyrrolo[2,3-b]pyridin-5-yl)pyrimidin-4-yl)amino)phenyl)-4-(4-(dimethylamino)but-2-enamido)benzamide]	didn't inhibit
6.60	CN(C)C/C=C/C(=O)NC1CCCC(C(=O)Nc2cccc(Nc3cc(-c4cnc5[nH]ccc5c4)ncn3)c2)C1 (centres unmarked) [THZ-CE-A-4-9, (E)-N-(3-((6-(1H-pyrrolo[2,3-b]pyridin-5-yl)pyrimidin-4-yl)amino)phenyl)-3-(4-(dimethylamino)but-2-enamido)cyclohexane-1-carboxamide]	
